In ChEMBL document CHEMBL4627246, “Pyroglutamide-Based P2X7 Receptor Antagonists Targeting Inflammatory Bowel Disease” (J Med Chem, 2020):

Legend:
Type in all cases: cell-based
CCRF-CEM = assay: Cytotoxicity against human CCRF-CEM cells assessed as effect on cell growth at 10 uM incubated for 48 hrs by sulforhodamine B assay
HCC 2998 = assay: Cytotoxicity against human HCC2998 cells assessed as effect on cell growth at 10 uM incubated for 48 hrs by sulforhodamine B assay; details: hcc 2998, 48 h
A498 = assay: Cytotoxicity against human A498 cells assessed as effect on cell growth at 10 uM incubated for 48 hrs by sulforhodamine B assay; details: a498, 48 h
COLO 205 = assay: Cytotoxicity against human COLO205 cells assessed as effect on cell growth at 10 uM incubated for 48 hrs by sulforhodamine B assay; details: colo 205, 48 h
UO-31 = assay: Cytotoxicity against human UO31 cells assessed as effect on cell growth at 10 uM incubated for 48 hrs by sulforhodamine B assay; details: uo-31, 48 h
SK-MEL-28 = assay: Cytotoxicity against human SK-MEL-28 cells assessed as effect on cell growth at 10 uM incubated for 48 hrs by sulforhodamine B assay; details: sk-mel-28, 48 h
NCI/ADR-RES = assay: Cytotoxicity against human NCI/ADR-RES cells assessed as effect on cell growth at 10 uM incubated for 48 hrs by sulforhodamine B assay
SN12C = assay: Cytotoxicity against human SN12C cells assessed as effect on cell growth at 10 uM incubated for 48 hrs by sulforhodamine B assay
RXF 393 = assay: Cytotoxicity against human RXF393 cells assessed as effect on cell growth at 10 uM incubated for 48 hrs by sulforhodamine B assay; details: rxf 393, 48 h
Hs-578T = assay: Cytotoxicity against human Hs 578T cells assessed as effect on cell growth at 10 uM incubated for 48 hrs by sulforhodamine B assay
SR = assay: Cytotoxicity against human SR cells assessed as effect on cell growth at 10 uM incubated for 48 hrs by sulforhodamine B assay
OVCAR-3 = assay: Cytotoxicity against human OVCAR3 cells assessed as effect on cell growth at 10 uM incubated for 48 hrs by sulforhodamine B assay; details: ovcar-3, 48 h
ACHN = assay: Cytotoxicity against human ACHN cells assessed as effect on cell growth at 10 uM incubated for 48 hrs by sulforhodamine B assay
K562 = assay: Cytotoxicity against human K562 cells assessed as effect on cell growth at 10 uM incubated for 48 hrs by sulforhodamine B assay; details: k562, 48 h
TK-10 = assay: Cytotoxicity against human TK10 cells assessed as effect on cell growth at 10 uM incubated for 48 hrs by sulforhodamine B assay; details: tk-10, 48 h
HOP-62 = assay: Cytotoxicity against human HOP62 cells assessed as effect on cell growth at 10 uM incubated for 48 hrs by sulforhodamine B assay; details: hop-62, 48 h
MDA-MB-435 = assay: Cytotoxicity against human MDA-MB-435 cells assessed as effect on cell growth at 10 uM incubated for 48 hrs by sulforhodamine B assay; details: mda-mb-435, 48 h
CAKI-1 = assay: Growth inhibition of human Caki1 cells assessed as growth percentage at 10 uM incubated for 48 hrs by sulforhodamine B assay; details: caki-1, 48 h
UACC-257 = assay: Cytotoxicity against human UACC257 cells assessed as effect on cell growth at 10 uM incubated for 48 hrs by sulforhodamine B assay; details: uacc-257, 48 h
SF-539 = assay: Cytotoxicity against human SF539 cells assessed as effect on cell growth at 10 uM incubated for 48 hrs by sulforhodamine B assay; details: sf-539, 48 h

Measured: Activity

COc1ccccc1CN1C(=O)[C@@H]2C/C(=C\N(C)C)C(=O)N2C1N(C)C (stereo not given in full)
Non-Toxic: all assays above

O=C1N[C@H](C(=O)NCc2ccc(Cl)cc2Cl)C/C1=C/NCc1ccc(Cl)cc1Cl
Non-Toxic: all assays above

CN(C)/C=C1\C[C@H]2C(=O)N(/C(=C/N(C)C)c3ccncc3)C(N(C)C)N2C1=O (stereo not given in full)
Non-Toxic: all assays above

O=C(NCc1ccc(Cl)cc1Cl)[C@@H]1CCC(=O)N1C(c1ccc(Cl)cc1)c1ccc(Cl)cc1
Non-Toxic: all assays above

CN(C)/C=C1\C[C@H]2C(=O)N(Cc3ccccc3Cl)C(N(C)C)N2C1=O (stereo not given in full)
Non-Toxic: all assays above

O=C(NCc1ccc(Cl)cc1Cl)[C@@H]1CCC(=O)N1c1ccc(Cl)cc1Cl
Non-Toxic: all assays above

O=C1N[C@H](C(=O)NCc2ccc(Cl)cc2Cl)C/C1=N\O (stereo in doubt)
Non-Toxic: all assays above

O=C(NCc1ccccc1Cl)[C@@H]1CCC(=O)N1c1ccccc1
Non-Toxic: all assays above

O=C(NCCc1ccc(Cl)cc1Cl)[C@@H]1CCC(=O)N1c1ccccc1
Non-Toxic: all assays above
